In patent US9580416B2, “Inhibitors of Bruton's tyrosine kinase” (PHARMACYCLICS LLC, priority 2014, dated 2017):

The compounds below were run against Btk (Homo sapiens, UniProt Q06187) (assay: Btk kinase activity, TR-FRET assay). Conditions: read-out: Btk (IC50).
Assay type: biochemical
Procedure: Btk kinase activity is determined using a time-resolved fluorescence resonance energy transfer (TR-FRET) methodology. Measurements are performed in a reaction volume of 50 μL using 96-well assay plates. Kinase enzyme, inhibitor, ATP (at the Km for the kinase), and 1 […] (Biotin-AVLESEEELYSSARQ-NH2) are incubated in a reaction buffer composed of 20 mM Tris, 50 mM NaCl, MgCl2 (5-25 mM depending on the kinase), MnCl2 (0-10 mM), 1 mM DTT, 0.1 mM EDTA, 0.01% bovine serum albumin, 0.005% Tween-20, and 10% DMSO at pH 7.4 for one hour. The reaction is quenched by the addition of 1.2 equivalents of EDTA (relative to divalent cation) in 25 μL of 1× Lance buffer (Perkin-Elmer). Streptavidin-APC (Perkin-Elmer) and Eu-labeled p-Tyr100 antibody (Perkin-Elmer) in 1× Lance buffer are added in a 25 μL volume to give final concentrations of 100 nM and 2.5 nM, respectively, and the mixture is allowed to incubate for one hour. The TR-FRET signal is measured on a multimode plate reader with an excitation wavelength (λEx) of 330 nm and detection wavelengths (λEm) of 615 and 665 nm. Activity is determined by the ratio of the fluorescence at 665 nm to that at 615 nm. For each compound, enzyme activity is measured at various concentrations of compound. Negative control reactions are performed in the absence of inhibitor in replicates of six, and two no-enzyme controls are used to determine baseline fluorescence levels. Inhibition constants, Ki(app), ware obtained using the program BatchKi (Kuzmic et al. (2000), Anal. Biochem. 286:45-50). IC50s are obtained according to the equation: IC50={Ki(app)/(1+[ATP]/Km^ATP)}+[E]total/2;
For all kinases, [ATP]=Km^ATP, [Btk]total=0.5 nM and [Lck]total=6 nM.

Chain of Btk (Q06187 whole entry): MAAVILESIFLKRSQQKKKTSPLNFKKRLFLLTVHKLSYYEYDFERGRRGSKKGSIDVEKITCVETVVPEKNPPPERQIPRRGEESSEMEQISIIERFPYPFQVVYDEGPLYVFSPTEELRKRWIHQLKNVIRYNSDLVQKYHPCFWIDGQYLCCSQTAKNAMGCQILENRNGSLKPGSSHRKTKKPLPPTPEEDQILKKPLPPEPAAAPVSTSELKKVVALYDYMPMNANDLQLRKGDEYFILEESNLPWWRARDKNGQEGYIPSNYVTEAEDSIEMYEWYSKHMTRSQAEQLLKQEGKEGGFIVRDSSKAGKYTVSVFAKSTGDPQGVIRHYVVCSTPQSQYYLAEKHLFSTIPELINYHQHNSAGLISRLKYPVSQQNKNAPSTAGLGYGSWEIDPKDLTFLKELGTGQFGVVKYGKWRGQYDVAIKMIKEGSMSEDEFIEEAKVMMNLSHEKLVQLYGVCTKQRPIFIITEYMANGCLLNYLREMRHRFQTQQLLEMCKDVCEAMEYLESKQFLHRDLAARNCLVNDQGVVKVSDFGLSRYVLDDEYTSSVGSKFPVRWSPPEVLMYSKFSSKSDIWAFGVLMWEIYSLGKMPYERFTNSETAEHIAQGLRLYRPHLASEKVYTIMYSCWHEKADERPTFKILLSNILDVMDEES

| IC50 | SMILES |
| --- | --- |
| 100 to 1000 nM | CN(C/C=C/C(=O)N1CCC[C@@H](Nc2n[nH]c3nccc(Oc4ccc(C(=O)Nc5cccc(C(F)(F)F)c5)cc4)c23)C1)C1CC1 [compound 138, 4-[(3-{[(3R)-1-[(2E)-4-[cyclopropyl(methyl)amino]but-2-enoyl]piperidin-3-yl]amino}-1H-pyrazolo[3,4-b]pyridin-4-yl)oxy]-N-[3-(trifluoromethyl)phenyl]benzamide] |
| 100 to 1000 nM | C=CC(=O)N1CCC[C@@H](Nc2n[nH]c3nccc(Oc4ccc(-c5nc6ncccc6o5)cc4)c23)C1 [compound 213, 1-[(3R)-3-{[4-(4-{[1,3]oxazolo[4,5-b]pyridin-2-yl}phenoxy)-1H-pyrazolo[3,4-b]pyridin-3-yl]amino}piperidin-1-yl]prop-2-en-1-one] |
| < 100 nM | C=CC(=O)N1CCC[C@@H](Nc2n[nH]c3nccc(Oc4ccc(C(=O)Nc5ncc(C#N)s5)cc4)c23)C1 [compound 166] |
| < 100 nM | C=CC(=O)N1CCC[C@@H](Nc2n[nH]c3nccc(Oc4ccc(C(=O)Nc5ncc(C(F)(F)F)s5)cc4)c23)C1 [compound 208, 4-[(3-{[(3R)-1-(prop-2-enoyl)piperidin-3-yl]amino}-1H-pyrazolo[3,4-b]pyridin-4-yl)oxy]-N-[5-(trifluoromethyl)-1,3-thiazol-2-yl]benzamide] |
| < 100 nM | C=CC(=O)N1CCC(CNc2n[nH]c3nccc(Oc4ccc(Oc5ccccc5)cc4)c23)CC1 [compound 266, 1-(4-((4-(4-phenoxyphenoxy)-1H-pyrazolo[3,4-b]pyridin-3-ylamino)methyl)piperidin-1-yl)prop-2-en-1-one] |
| > 10000 nM | Cc1cnc(NC(=O)[C@H]2CC[C@H](Oc3ccnc4[nH]nc(N[C@@H]5CCCN(C(=O)/C=C/CN(C)C6CC6)C5)c34)CC2)s1 [compound 152] |
| > 10000 nM | Cc1nnc(NC(=O)c2ccc(Oc3ccnc4[nH]nc(N[C@@H]5CCCN(C(=O)/C=C/CN(C)C6CC6)C5)c34)cc2)s1 [compound 209, 4-[(3-{[(3R)-1-[(2E)-4-[cyclopropyl(methyl)amino]but-2-enoyl]piperidin-3-yl]amino}-1H-pyrazolo[3,4-b]pyridin-4-yl)oxy]-N-(5-methyl-1,3,4-thiadiazol-2-yl)benzamide] |
| 100 to 1000 nM | Cc1cc(NC(=O)c2cccc(Oc3ccnc4[nH]nc(N[C@@H]5CCNC5)c34)c2)ccc1C(C)C [compound 249, (R)—N-(4-isopropyl-3-methylphenyl)-3-(3-(pyrrolidin-3-ylamino)-1H-pyrazolo[3,4-b]pyridin-4-yloxy)benzamide] |
| < 100 nM | CN(C/C=C/C(=O)N1CC[C@@H](N2CC(=O)N(c3ccc(Oc4ccccc4)cc3)c3ccnc4[nH]nc2c34)C1)C1CC1 [compound 239] |
| > 10000 nM | CC#CC(=O)N1CCC[C@@H](Nc2n[nH]c3nccc(Oc4ccc(-c5ccc(C(F)(F)F)cn5)cc4)c23)C1 [compound 206, 1-[(3R)-3-[(4-{4-[5-(trifluoromethyl)pyridin-2-yl]phenoxy}-1H-pyrazolo[3,4-b]pyridin-3-yl)amino]piperidin-1-yl]but-2-yn-1-one] |
| 100 to 1000 nM | Cc1cc(NC(=O)c2cccc(Oc3ccnc4[nH]nc(N[C@@H]5CCCNC5)c34)c2)ccc1C(C)C [compound 258, (R)—N-(4-isopropyl-3-methylphenyl)-3-(3-(piperidin-3-ylamino)-1H-pyrazolo[3,4-b]pyridin-4-yloxy)benzamide] |
| < 100 nM | C=CC(=O)N1CC[C@H](CNc2n[nH]c3nccc(Oc4ccc(Oc5ccccc5)cc4)c23)C1 [compound 268, (R)-1-(3-((4-(4-phenoxyphenoxy)-1H-pyrazolo[3,4-b]pyridin-3-ylamino)methyl)pyrrolidin-1-yl)prop-2-en-1-one] |
| < 100 nM | C=CC(=O)N1CC[C@@H](Nc2n[nH]c3nccc(Oc4ccc(C(=O)Nc5cc(C(F)(F)F)ccn5)cc4)c23)C1 [compound 171] |
| < 100 nM | CC#CC(=O)N1CC[C@@H](Nc2n[nH]c3nccc(Oc4ccc(C(=O)Nc5cc(C(F)(F)F)ccn5)cc4)c23)C1 [compound 174] |
| < 100 nM | c1ccc(Oc2ccc(Oc3ccnc4[nH]nc(NC5CCNCC5)c34)cc2)cc1 [compound 261] |
| 100 to 1000 nM | C=CC(=O)N1CCC[C@@H](Nc2n[nH]c3nccc(Oc4ccc(-c5cc(C(F)(F)F)ccn5)cc4)c23)C1 [compound 155] |
| 100 to 1000 nM | c1ccc(Oc2ccc(Oc3ccnc4[nH]nc(NC[C@H]5CCNC5)c34)cc2)cc1 [compound 264, (S)-4-(4-phenoxyphenoxy)-N-(pyrrolidin-3-ylmethyl)-1H-pyrazolo[3,4-b]pyridin-3-amine] |
| 100 to 1000 nM | CN(C)C/C=C/C(=O)N1CC[C@@H](Nc2n[nH]c3nccc(Oc4ccc(Oc5ccccc5)cc4C(N)=O)c23)C1 [compound 41] |
| 100 to 1000 nM | CN(C/C=C/C(=O)N1CC[C@@H](N(C(=O)/C=C/CN(C)C2CC2)c2n[nH]c3ncnc(Oc4ccc(Oc5ccccc5)cc4)c23)C1)C1CC1 [compound 49] |

The remaining lines, values behind:

| SMILES | IC50 |
| --- | --- |
| CC(C)NC(=O)Nc1ccc(Oc2ccnc3[nH]nc(N[C@@H]4CCCN(C(=O)/C=C/CN(C)C5CC5)C4)c23)cc1 [compound 147] | > 10000 nM |
| Nc1ncnc2[nH]nc(-c3ccc(Oc4ccccc4)cc3)c12 [compound 121, 3-(4-phenoxyphenyl)-1H-pyrazolo[3,4-b]pyrimidin-4-amine] | < 100 nM |
| c1ccc(Oc2ccc(Oc3ccnc4[nH]nc(NCC5CCNCC5)c34)cc2)cc1 [compound 262, 4-(4-phenoxyphenoxy)-N-(piperidin-4-ylmethyl)-1H-pyrazolo[3,4-b]pyridin-3-amine] | 100 to 1000 nM |
| CN(C/C=C/C(=O)N1CC[C@@H](N2C(=O)CN(c3ccc(Oc4ccccc4)cc3)c3ccnc4[nH]nc2c34)C1)C1CC1 [compound 238] | 100 to 1000 nM |
| CCC(=O)N1CCC[C@@H](N(C(=O)CC)c2n[nH]c3ncnc(Oc4ccc(Oc5ccccc5)cc4)c23)C1 [compound 52] | 100 to 1000 nM |
| Cc1cc(NC(=O)c2cccc(Nc3ccnc4[nH]nc(N[C@@H]5CCCNC5)c34)c2)ccc1C(C)C [compound 253, (R)—N-(4-isopropyl-3-methylphenyl)-3-(3-(piperidin-3-ylamino)-1H-pyrazolo[3,4-b]pyridin-4-ylamino)benzamide] | 100 to 1000 nM |
| c1ccc(Oc2ccc(Oc3ccnc4[nH]nc(NC[C@@H]5CCCNC5)c34)cc2)cc1 [compound 263, (R)-4-(4-phenoxyphenoxy)-N-(piperidin-3-ylmethyl)-1H-pyrazolo[3,4-b]pyridin-3-amine] | 100 to 1000 nM |
| C=CC(=O)N1CCC[C@@H](CNc2n[nH]c3nccc(Oc4ccc(Oc5ccccc5)cc4)c23)C1 [compound 267, (S)-1-(3-((4-(4-phenoxyphenoxy)-1H-pyrazolo[3,4-b]pyridin-3-ylamino)methyl)piperidin-1-yl)prop-2-en-1-one] | < 100 nM |
| CCNC(=O)Nc1ccc(Oc2ccnc3[nH]nc(N[C@@H]4CCCN(C(=O)/C=C/CN(C)C5CC5)C4)c23)cc1 [compound 136] | > 10000 nM |
| C=CC(=O)N1CCC[C@@H](Nc2n[nH]c3nccc(Oc4ccc(C(=O)N5CCCC(C(F)(F)F)C5)cc4)c23)C1 (stereo partly drawn) [compound 160] | < 100 nM |
| Cc1cnc(-c2cccc(Oc3ccnc4[nH]nc(N[C@@H]5CCCN(C(=O)/C=C/CN(C)C6CC6)C5)c34)c2)s1 [compound 150] | 1000 to 10000 nM |
| C=CC(=O)N1CCC[C@@H](Nc2n[nH]c3nccc(Oc4ccc(C(=O)N(C)c5ncc(C)s5)cc4)c23)C1 [compound 211, N-methyl-N-(5-methyl-1,3-thiazol-2-yl)-4-[(3-{[(3R)-1-(prop-2-enoyl)piperidin-3-yl]amino}-1H-pyrazolo[3,4-b]pyridin-4-yl)oxy]benzamide] | < 100 nM |
| CC(=O)N1CCN(C(=O)c2cccc(Oc3ccnc4[nH]nc(N[C@@H]5CCCNC5)c34)c2)CC1 [compound 257, (R)-1-(4-(3-(3-(piperidin-3-ylamino)-1H-pyrazolo[3,4-b]pyridin-4-yloxy)benzoyl)piperazin-1-yl)ethanone] | 100 to 1000 nM |
| CC#CC(=O)N1CCC[C@@H](Nc2n[nH]c3nccc(Oc4ccc(C(=O)N5CCCC(C(F)(F)F)C5)cc4)c23)C1 (stereo partly drawn) [compound 163] | 100 to 1000 nM |
| CC#CC(=O)N1CCC[C@@H](Nc2n[nH]c3nccc(Oc4ccc(C(=O)Nc5nnc(C)s5)cc4)c23)C1 [compound 180] | 1000 to 10000 nM |
| CC#CC(=O)N1CCC[C@@H](Nc2n[nH]c3nccc(Oc4ccc(C(=O)N(C)c5ncc(C)s5)cc4)c23)C1 [compound 210, 4-[(3-{[(3R)-1-(but-2-ynoyl)piperidin-3-yl]amino}-1H-pyrazolo[3,4-b]pyridin-4-yl)oxy]-N-methyl-N-(5-methyl-1,3-thiazol-2-yl)benzamide] | 100 to 1000 nM |
| O=C(c1cccc(Oc2ccnc3[nH]nc(N[C@@H]4CCCNC4)c23)c1)N1CCCCC1 [compound 255, (R)-piperidin-1-yl(3-(3-(piperidin-3-ylamino)-1H-pyrazolo[3,4-b]pyridin-4-yloxy)phenyl)methanone] | 100 to 1000 nM |
